Values quoted from earlier work in US20250303004A1, “RADIOPHARMACEUTICAL COMPOSITIONS FOR LOW TOXICITY ACTINIUM IN TARGETED RADIONUCLIDE THERAPY” (Curium US LLC, priority 2021, published 2025).

Tests used:
[1] = tested on: kidneys and lesion of a mCRPC patient; details: 8.1 MBq, cited from earlier work
[2] = tested on: patient with advanced mCRPC; details: cited from earlier work
patients = details: cited from earlier work
[3] = subgroup of 11 patients with prior ^177Lu-PSMA treatment
[4] = subgroup with prior ^177Lu-PSMA radioligand therapy

O=C(O)CC[C@H](NC(=O)N[C@@H](CCCCNC(=O)CCCCCCC(=O)NCCCC[C@@H](NC(=O)[C@@H](Cc1ccccc1)NC(=O)[C@@H](Cc1ccc(O)c(I)c1)NC(=O)CC[C@H](C(=O)O)N1CCN(CC(=O)O)CCN(CC(=O)O)CCN(CC(=O)O)CC1)C(=O)O)C(=O)O)C(=O)O.[225Ac+3] [^225Ac-PSMA-I&T, (3S,7S,26R,29R,32R,37R)-29-benzyl-32-(4-hydroxy-3-iodobenzyl)-5,13,20,28,31,34-hexaoxo-37-(4,7,10-tris(carboxymethyl)-1,4,7,10-tetraazacyclododecan-1-yl)-4,6,12,21,27,30,33-heptaazaheptatriacontane-1,3,7,26,37-pentacarboxylic acid; Actinium-225 (III)]
absorbed dose, left kidney ([1]; SPECT/CT at 24 h p. i.): 0.18 Sv(RBE=5)/MBq
absorbed dose, right kidney ([1]; SPECT/CT at 24 h p. i.): 0.17 Sv(RBE=5)/MBq
absorbed dose, small lesion in the right hip [1]: 0.26 Sv(RBE=5)/MBq
main TAT-related side effect ([2]; already preexisting after 10 cycles of RLT): grade 2 xerostomia
response ([2]; two cycles after failure of ^177Lu-PSMA-617 (10 cycles), FIG. 6): encouraging response
hematological side effects ([2]; two cycles): No TAT-related grade 3/4 hematological side effects were noted
acute toxicity during hospitalization (patients; 14 patients, 34 cycles, median 7.8 MBq): No acute toxicity was observed
hematologic toxicity (patients; 14 patients, FIG. 13): mild
patients with grade 1 nephrotoxicity (patients; 14 patients, FIG. 13): one
biochemical responses compared with ^225Ac-PSMA-617 TAT (patients; first clinical data): highly comparable biochemical responses
patients with grade 3 anemia after TAT (patients; of 14 patients, 2 with grade 2 anemia at baseline): 3 patients
patients reporting no xerostomia at all (patients; of 14 patients): One
patients with PSA decline of any amount (patients; of 14 patients): 11 patients
patients with best PSA response (PSA decline ≥50%) (patients; of 14 patients): 7 patients
patients with grade 3 leukopenia (patients; of 14 patients): 1 patients
patients with newly diagnosed grade 1 or 2 xerostomia after TAT (patients; of 14 patients): 5 patients
patients with no PSA decline at any time (patients; of 14 patients): Three
patients with preexisting xerostomia after ^177Lu-PSMA showing no worsening after TAT (patients; of 14 patients): Eight
patients with PSA decline of at least 50% (patients; [3]): 5 patients
patients with any PSA decline (patients; [3]): 8 patients
PSA decline ≥50% (patients; [4]): 45%
any PSA decline (patients; [4]): 73%
